We go through 3 molecules from patent US20110038936A1, “SYSTEM AND METHOD FOR ELECTROSPUN DRUG LOADED BIODEGRADABLE CHEMOTHERAPY APPLICATIONS” (priority 2009, published 2011).

For series [1] the following is noted: intravenous infusion, doses 30 to 170 mg/m^2; cited from earlier work.
Series [2] is described as follows: Capacity of drug loading of the electrospun polymer device. In kind it is physicochemical. As to conditions: larger quantities cause supersaturation of the solution.
Source text: With time, the solvent would evaporate leaving a crystallized non-homogenous mixture of polymer and drug.
The conditions of series [3]: in vivo; cited from earlier work.
The conditions of series [4]: cited from earlier work.

≈ marks a conversion by molar mass, not a printed value.

Broadly, the clearance is the volume of plasma or blood freed of the substance per unit of time. With `O=NN(CCCl)C(=O)NCCCl` [BCNU], in series [1], the average terminal half-life was 22 min, the clearance is recorded as 56 mL/min/kg and the “steady-state volume of distribution” value is 3.25 L/kg.
As for `COc1ccccc1OCC(O)CO` (racemic) [Guaifenesin, (2RS)-3-(2-Methoxyphenoxy)propane-1,2-diol], the “maximum amount of drug loaded in the electrospun polymer device” value in series [2] is on record as 5 wt %. In series [3], the half-life entry was “approximately 1 hour”. Moreover, the water solubility in series [4] is 50 mg/mL (≈ 252 mM).
Regarding `C[C@]12CC[C@@H]3c4ccc(O)cc4CC[C@H]3[C@@H]1CC[C@@H]2O` [Beta-Estradiol, 17β-estradiol], in series [2], the “maximum amount of drug loaded in the electrospun polymer device” value is on record as 1 wt %.
